From BindingDB's records for doi:10.1016/0960-894X(95)00044-T (1995)

What follows are molecules tested against DNA (assay: Inhibition of calf thymus DNA/ethidium bromide complex formation.).

Row | EC50 [µM] | SMILES
1 | > 55 | Cc1cc(-c2c(F)cc3c(=O)ccn(C4CC4)c3c2F)cc(C)n1 [1-Cyclopropyl-7-(2,6-dimethyl-pyridin-4-yl)-6,8-difluoro-1H-quinolin-4-one]
2 | > 50 | Cc1cc(-c2c(F)cc3c4nn([C@H]5CC[C@@H](N)CC5)c(=O)c-4cn(C4CC4)c3c2F)cc(C)n1 [2-(4-Amino-cyclohexyl)-5-cyclopropyl-7-(2,6-dimethyl-pyridin-4-yl)-6,8-difluoro-2,5-dihydro-pyrazolo[4,3-c]quinolin-3-one]
3 | > 50 | Cc1cc(-c2c(F)cc3c4nn([C@H]5CC[C@H](N)CC5)c(=O)c-4cn(C4CC4)c3c2F)cc(C)n1 [2-(4-Amino-cyclohexyl)-5-cyclopropyl-7-(2,6-dimethyl-pyridin-4-yl)-6,8-difluoro-2,5-dihydro-pyrazolo[4,3-c]quinolin-3-one]
4 | > 50 | Cc1cc(-c2c(F)cc3c4nn(C5CCCCC5)c(=O)c-4cn(C4CC4)c3c2F)cc(C)n1 [2-Cyclohexyl-5-cyclopropyl-7-(2,6-dimethyl-pyridin-4-yl)-6,8-difluoro-2,5-dihydro-pyrazolo[4,3-c]quinolin-3-one]
5 | 0.93 | Cc1cc(-c2c(F)cc3c4nn(CCN(C)C)c(=O)c-4cn(C4CC4)c3c2F)cc(C)n1 [5-Cyclopropyl-2-(2-dimethylamino-ethyl)-7-(2,6-dimethyl-pyridin-4-yl)-6,8-difluoro-2,5-dihydro-pyrazolo[4,3-c]quinolin-3-one]
6 | > 50 | Cc1cc(-c2c(F)cc3c4nn(CCCN(C)C)c(=O)c-4cn(C4CC4)c3c2F)cc(C)n1 [5-Cyclopropyl-2-(3-dimethylamino-propyl)-7-(2,6-dimethyl-pyridin-4-yl)-6,8-difluoro-2,5-dihydro-pyrazolo[4,3-c]quinolin-3-one]
7 | > 50 | Cc1cc(-c2c(F)cc3c4nn([C@H]5CC[C@@H](N(C)C)CC5)c(=O)c-4cn(C4CC4)c3c2F)cc(C)n1 [5-Cyclopropyl-2-(4-dimethylamino-cyclohexyl)-7-(2,6-dimethyl-pyridin-4-yl)-6,8-difluoro-2,5-dihydro-pyrazolo[4,3-c]quinolin-3-one]
8 | > 50 | Cc1cc(-c2c(F)cc3c4nn([C@H]5CC[C@H](N(C)C)CC5)c(=O)c-4cn(C4CC4)c3c2F)cc(C)n1 [5-Cyclopropyl-2-(4-dimethylamino-cyclohexyl)-7-(2,6-dimethyl-pyridin-4-yl)-6,8-difluoro-2,5-dihydro-pyrazolo[4,3-c]quinolin-3-one]
9 | 27 | Cc1cc(-c2c(F)cc3c4n[nH]c(=O)c-4cn(C4CC4)c3c2F)cc(C)n1 [5-Cyclopropyl-7-(2,6-dimethyl-pyridin-4-yl)-6,8-difluoro-2,5-dihydro-pyrazolo[4,3-c]quinolin-3-one]
10 | > 50 | Cc1cc(-c2c(F)cc3c4nn(C5CCN(C)CC5)c(=O)c-4cn(C4CC4)c3c2F)cc(C)n1 [5-Cyclopropyl-7-(2,6-dimethyl-pyridin-4-yl)-6,8-difluoro-2-(1-methyl-piperidin-4-yl)-2,5-dihydro-pyrazolo[4,3-c]quinolin-3-one]
11 | > 60 | Cc1cc(-c2c(F)cc3c4nn(CCO)c(=O)c-4cn(C4CC4)c3c2F)cc(C)n1 [5-Cyclopropyl-7-(2,6-dimethyl-pyridin-4-yl)-6,8-difluoro-2-(2-hydroxy-ethyl)-2,5-dihydro-pyrazolo[4,3-c]quinolin-3-one]
12 | > 50 | Cc1cc(-c2c(F)cc3c4nn(C5CCC(C)CC5)c(=O)c-4cn(C4CC4)c3c2F)cc(C)n1 (stereo unspecified) [5-Cyclopropyl-7-(2,6-dimethyl-pyridin-4-yl)-6,8-difluoro-2-(4-methyl-cyclohexyl)-2,5-dihydro-pyrazolo[4,3-c]quinolin-3-one]
13 | > 50 | Cc1cc(-c2c(F)cc3c4nn(C5CCOCC5)c(=O)c-4cn(C4CC4)c3c2F)cc(C)n1 [5-Cyclopropyl-7-(2,6-dimethyl-pyridin-4-yl)-6,8-difluoro-2-(tetrahydro-pyran-4-yl)-2,5-dihydro-pyrazolo[4,3-c]quinolin-3-one]
14 | 1.2 | Cc1cc(-c2c(F)cc3c4nn(CCNCCO)c(=O)c-4cn(C4CC4)c3c2F)cc(C)n1 [5-Cyclopropyl-7-(2,6-dimethyl-pyridin-4-yl)-6,8-difluoro-2-[2-(2-hydroxy-ethylamino)-ethyl]-2,5-dihydro-pyrazolo[4,3-c]quinolin-3-one]
15 | > 60 | Cc1cc(-c2c(F)cc3c4nn(C)c(=O)c-4cn(C4CC4)c3c2F)cc(C)n1 [5-Cyclopropyl-7-(2,6-dimethyl-pyridin-4-yl)-6,8-difluoro-2-methyl-2,5-dihydro-pyrazolo[4,3-c]quinolin-3-one]
16 | > 60 | Cc1cc(-c2c(F)cc3c4nn(-c5ccccc5)c(=O)c-4cn(C4CC4)c3c2F)cc(C)n1 [5-Cyclopropyl-7-(2,6-dimethyl-pyridin-4-yl)-6,8-difluoro-2-phenyl-2,5-dihydro-pyrazolo[4,3-c]quinolin-3-one]
17 | > 52 | CC(=O)N[C@H]1CC[C@@H](n2nc3c4cc(F)c(-c5cc(C)nc(C)c5)c(F)c4n(C4CC4)cc-3c2=O)CC1 [N-{4-[5-Cyclopropyl-7-(2,6-dimethyl-pyridin-4-yl)-6,8-difluoro-3-oxo-3,5-dihydro-pyrazolo[4,3-c]quinolin-2-yl]-cyclohexyl}-acetamide]
18 | > 51 | CC(=O)N[C@H]1CC[C@H](n2nc3c4cc(F)c(-c5cc(C)nc(C)c5)c(F)c4n(C4CC4)cc-3c2=O)CC1 [N-{4-[5-Cyclopropyl-7-(2,6-dimethyl-pyridin-4-yl)-6,8-difluoro-3-oxo-3,5-dihydro-pyrazolo[4,3-c]quinolin-2-yl]-cyclohexyl}-acetamide]
19 | > 54 | Cc1cc(-c2c(F)cc3c(=O)c(C(=O)O)cn(C4CC4)c3c2F)cc(C)n1 [WIN-57294]
20 | > 60 | CCOC(=O)Cn1nc2c3cc(F)c(-c4cc(C)nc(C)c4)c(F)c3n(C3CC3)cc-2c1=O [[5-Cyclopropyl-7-(2,6-dimethyl-pyridin-4-yl)-6,8-difluoro-3-oxo-3,5-dihydro-pyrazolo[4,3-c]quinolin-2-yl]-acetic acid ethyl ester]
21 | > 60 | Cc1cc(-c2c(F)cc3c4nn(CC(=O)O)c(=O)c-4cn(C4CC4)c3c2F)cc(C)n1 [[5-Cyclopropyl-7-(2,6-dimethyl-pyridin-4-yl)-6,8-difluoro-3-oxo-3,5-dihydro-pyrazolo[4,3-c]quinolin-2-yl]-acetic acid]
